Results taken from the NIST ThermoML archive (doi:10.1021/acs.jced.6b00210).
Numbers after ± are expanded uncertainties.

Test: xn = mol fraction of the nth substance listed
Conditions: 100 kPa, Liquid; for viscosity: Concentric cylinders viscometry; for mass density: Vibrating tube method

Nc1ccccc1 [aniline] + CCCC(C)O
Conditions | mass density [kg/m3] | viscosity [mPa·s]
293.15 K, x1 = 0.0811 | 824.5 ± 0.2 | 3.55 ± 0.43
293.15 K, x1 = 0.1599 | 839.5 ± 0.2 | 3.23 ± 0.39
293.15 K, x1 = 0.2399 | 855 ± 0.2 | 3 ± 0.36
293.15 K, x1 = 0.35 | 877 ± 0.3 | 2.8 ± 0.3
293.15 K, x1 = 0.44 | 895.5 ± 0.3 | 2.71 ± 0.33
293.15 K, x1 = 0.56 | 920.8 ± 0.3 | 2.67 ± 0.32
293.15 K, x1 = 0.65 | 940.4 ± 0.3 | 2.72 ± 0.33
293.15 K, x1 = 0.74 | 960.5 ± 0.3 | 2.86 ± 0.34
293.15 K, x1 = 0.8499 | 985.8 ± 0.3 | 3.26 ± 0.39
293.15 K, x1 = 0.9363 | 1006.3 ± 0.3 | 3.79 ± 0.46
293.15 K, x1 = 1 | 1021.7 ± 0.3 | 4.37 ± 0.53
298.15 K, x1 = 0.0811 | 820.3 ± 0.2 | 3.03 ± 0.36
298.15 K, x1 = 0.1599 | 835.3 ± 0.2 | 2.74 ± 0.33
298.15 K, x1 = 0.2399 | 850.8 ± 0.2 | 2.53 ± 0.3
298.15 K, x1 = 0.35 | 872.7 ± 0.3 | 2.35 ± 0.28
298.15 K, x1 = 0.44 | 891.1 ± 0.3 | 2.28 ± 0.27
298.15 K, x1 = 0.56 | 916.4 ± 0.3 | 2.28 ± 0.27
298.15 K, x1 = 0.65 | 935.9 ± 0.3 | 2.34 ± 0.28
298.15 K, x1 = 0.74 | 956 ± 1 | 2.49 ± 0.3
298.15 K, x1 = 0.8499 | 981.4 ± 0.3 | 2.87 ± 0.35
298.15 K, x1 = 0.9363 | 1001.9 ± 0.3 | 3.31 ± 0.4
298.15 K, x1 = 1 | 1017.4 ± 0.3 | 3.8 ± 0.46
303.15 K, x1 = 0.0811 | 816.1 ± 0.2 | 2.61 ± 0.31
303.15 K, x1 = 0.1599 | 831 ± 0.2 | 2.34 ± 0.28
303.15 K, x1 = 0.2399 | 846.5 ± 0.2 | 2.12 ± 0.26
303.15 K, x1 = 0.35 | 868.3 ± 0.3 | 1.93 ± 0.23
303.15 K, x1 = 0.44 | 886.7 ± 0.3 | 1.86 ± 0.22
303.15 K, x1 = 0.56 | 912 ± 1 | 1.83 ± 0.22
303.15 K, x1 = 0.65 | 931.6 ± 0.3 | 1.87 ± 0.23
303.15 K, x1 = 0.74 | 951.7 ± 0.3 | 2.01 ± 0.24
303.15 K, x1 = 0.8499 | 977 ± 0.3 | 2.36 ± 0.28
303.15 K, x1 = 0.9363 | 997.6 ± 0.3 | 2.74 ± 0.33
303.15 K, x1 = 1 | 1013.2 ± 0.3 | 3.13 ± 0.38
308.15 K, x1 = 0.0811 | 811.8 ± 0.2 | 2.22 ± 0.27
308.15 K, x1 = 0.1599 | 826.7 ± 0.2 | 1.98 ± 0.24
308.15 K, x1 = 0.2399 | 842.1 ± 0.3 | 1.8 ± 0.22
308.15 K, x1 = 0.35 | 863.9 ± 0.3 | 1.65 ± 0.2
308.15 K, x1 = 0.44 | 882.3 ± 0.3 | 1.58 ± 0.19
308.15 K, x1 = 0.56 | 907.6 ± 0.3 | 1.562 ± 0.19
308.15 K, x1 = 0.65 | 927.1 ± 0.3 | 1.64 ± 0.2
308.15 K, x1 = 0.74 | 947.2 ± 0.3 | 1.78 ± 0.21
308.15 K, x1 = 0.8499 | 972.7 ± 0.3 | 2.09 ± 0.25
308.15 K, x1 = 0.9363 | 993.3 ± 0.3 | 2.44 ± 0.29
308.15 K, x1 = 1 | 1009 ± 0.3 | 2.75 ± 0.33
313.15 K, x1 = 0.0811 | 807.5 ± 0.2 | 1.84 ± 0.22
313.15 K, x1 = 0.1599 | 822.3 ± 0.2 | 1.64 ± 0.2
313.15 K, x1 = 0.2399 | 837.6 ± 0.3 | 1.5 ± 0.18
313.15 K, x1 = 0.35 | 859.4 ± 0.3 | 1.39 ± 0.17
313.15 K, x1 = 0.44 | 877.8 ± 0.3 | 1.359 ± 0.16
313.15 K, x1 = 0.56 | 903 ± 0.3 | 1.38 ± 0.17
313.15 K, x1 = 0.65 | 922.6 ± 0.3 | 1.46 ± 0.18
313.15 K, x1 = 0.74 | 942.8 ± 0.3 | 1.61 ± 0.19
313.15 K, x1 = 0.8499 | 968.2 ± 0.3 | 1.89 ± 0.23
313.15 K, x1 = 0.9363 | 989 ± 0.3 | 2.18 ± 0.26
313.15 K, x1 = 1 | 1004.7 ± 0.3 | 2.43 ± 0.29
318.15 K, x1 = 0.0811 | 803.1 ± 0.2 | 1.48 ± 0.18
318.15 K, x1 = 0.1599 | 817.9 ± 0.3 | 1.34 ± 0.16
318.15 K, x1 = 0.2399 | 833.2 ± 0.3 | 1.257 ± 0.15
318.15 K, x1 = 0.35 | 854.9 ± 0.3 | 1.18 ± 0.14
318.15 K, x1 = 0.44 | 873.3 ± 0.3 | 1.16 ± 0.14
318.15 K, x1 = 0.56 | 898.6 ± 0.3 | 1.21 ± 0.15
318.15 K, x1 = 0.65 | 918.1 ± 0.3 | 1.29 ± 0.16
318.15 K, x1 = 0.74 | 938.3 ± 0.3 | 1.44 ± 0.17
318.15 K, x1 = 0.8499 | 963.8 ± 0.3 | 1.7 ± 0.2
318.15 K, x1 = 0.9363 | 984.6 ± 0.3 | 1.93 ± 0.23
318.15 K, x1 = 1 | 1000.4 ± 0.3 | 2.14 ± 0.26
323.15 K, x1 = 0.0811 | 798.7 ± 0.2 | 1.19 ± 0.14
323.15 K, x1 = 0.1599 | 813.3 ± 0.3 | 1.11 ± 0.13
323.15 K, x1 = 0.2399 | 828.6 ± 0.3 | 1.06 ± 0.13
323.15 K, x1 = 0.35 | 850.2 ± 0.3 | 1.03 ± 0.12
323.15 K, x1 = 0.44 | 868.5 ± 0.3 | 1.03 ± 0.12
323.15 K, x1 = 0.56 | 893.7 ± 0.3 | 1.08 ± 0.13
323.15 K, x1 = 0.65 | 913.3 ± 0.3 | 1.17 ± 0.14
323.15 K, x1 = 0.74 | 933.4 ± 0.3 | 1.31 ± 0.16
323.15 K, x1 = 0.8499 | 958.9 ± 0.3 | 1.54 ± 0.19
323.15 K, x1 = 0.9363 | 979.7 ± 0.3 | 1.77 ± 0.21
323.15 K, x1 = 1 | 995.5 ± 0.3 | 1.96 ± 0.24
